In general, mortality refers to the percentage killed.

Molecules are shown by their SMILES.

Mortality data for 34 compounds are collected here from US8680269B2, “Pesticidal compositions” (Dow AgroSciences, LLC., priority 2009, dated 2014).

Holding throughout (type): in vivo
For test [1], the system named is corn earworm (CEW; Helicoverpa zea). Nature of the test: Insecticidal test for corn earworm, 128-well diet tray assay. Conditions: 144 h, 50 μg/cm2 on artificial diet, second instar larvae, six days at 25° C. Put shortly: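 Second-instar H. zea larvae, three to five per well, on artificial diet surface-treated with 50 μg/cm^2 compound (90:10 acetone-water, dried), eight wells per compound. Held 6 days at 25° C, 14:10 light-dark; percent mortality averaged over wells.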

Test [2] concerns green peach aphid (Myzus persicae). Nature of the test: Insecticidal test for green peach aphid in foliar spray assay. Conditions: 72 h, 200 ppm foliar spray on cabbage seedlings, graded after three days, Abbott corrected % control, read-out: Mortality GPA 200 ppm. The procedure: Cabbage seedlings grown in 3-inch pots, with 2-3 small (3-5 cm) true leaves, were used as test substrate. The seedlings were infested with 20-50 green peach aphids (wingless adult and nymph) one day prior to chemical application. Four pots with individual seedlings were used for each treatment. Compounds (2 mg) were dissolved in 2 mL of acetone/methanol (1:1) solvent, forming stock solutions of 1000 ppm. The stock solutions were diluted 5× with 0.025% Tween 20 in H2O to obtain the test solution at 200 ppm. A hand-held Devilbiss sprayer was used for spraying a solution to both sides of cabbage leaves until runoff. Reference plants (solvent check) were sprayed with the diluent only. Treated plants were held in a holding room for three days at approximately 25° C. and 40% relative humidity (RH) prior to grading. Evaluation was conducted by counting the number of live aphids per plant under a microscope. Insecticidal activity data, measured by using Abbott's correction formula, are presented in Table 2: Corrected % Control=100*(X−Y)/X • where X=No. of live aphids on solvent check plants • Y=No. of live aphids on treated plants

The subject of test [3] is beet armyworm (BAW; Spodoptera exigua). Nature of the test: Insecticidal test for beet armyworm, 128-well diet tray assay. Conditions: 144 h, 50 μg/cm2 on artificial diet, second instar larvae, six days at 25° C. Put shortly:
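Second-instar larvae, three to five per well, fed on artificial diet surface-treated with 50 μg/cm^2 compound (applied in 90:10 acetone-water, dried). Held 6 days at 25 °C, 14:10 light-dark; percent mortality scored per well and averaged over eight wells.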

Consider `CN(C)c1ccc(NC(=S)N/N=C/c2ccc(-c3ncn(-c4ccc(OC(F)(F)C(F)(F)F)cc4)n3)cc2)cc1` [Compound 36], for which the mortality at 50 µg/cm2 in test [1] and in test [3] was 50 to 100% each time. Besides, the mortality at 200 ppm in test [2] is below 80%.

Take `CCc1cccc(C)c1NC(=S)N/N=C/c1ccc(-c2ncn(-c3ccc(OC(F)(F)F)cc3)n2)cc1` [Compound 72]: the mortality at 50 µg/cm2 in test [1] and in test [3] was 50 to 100% throughout. Further, the mortality at 200 ppm in test [2] was below 80%.

For `CC(=O)Nc1ccc(NC(=S)N/N=C/c2ccc(-c3ncn(-c4ccc(OC(F)(F)F)cc4)n3)cc2)cc1` [Compound 41], the mortality at 50 µg/cm2 in test [1] and in test [3] was 50 to 100% each time. In test [2], the mortality at 200 ppm was below 80%.

Take `CNC(=S)N/N=C/c1ccc(-c2ncn(-c3ccc(C(F)(F)F)cc3)n2)cc1` [Compound 15]: the mortality at 50 µg/cm2 in test [1] and in test [3] was 50 to 100% throughout. Moreover, the mortality at 200 ppm in test [2] is below 80%.

Turning to `COc1cc(C)c(NC(=S)N/N=C/c2ccc(-c3ncn(-c4ccc(OC(F)(F)F)cc4)n3)cc2)c(C)n1` [Compound 129], the mortality at 50 µg/cm2 in test [1] and in test [3] was 50 to 100% each time. In test [2], the mortality at 200 ppm is below 80%.

Take `CCc1cccc(CC)c1NC(=S)N/N=C/c1ccc(-c2ncn(-c3ccc(OC(F)(F)F)cc3)n2)cc1` [Compound 76]: the mortality at 50 µg/cm2 in test [1] and in test [3] was 50 to 100% in each case. In addition, the mortality at 200 ppm in test [2] was below 80%.

For the compound `CN(C)c1ccccc1CNC(=S)N/N=C/c1ccc(-c2ncn(-c3ccc(OC(F)(F)F)cc3)n2)cc1` [Compound 39], the mortality at 50 µg/cm2 in test [1] and in test [3] was 50 to 100% throughout. Also, in test [2], the mortality at 200 ppm is below 80%.

`COc1cccc(C)c1NC(=S)N/N=C/c1ccc(-c2ncn(-c3ccc(OC(F)(F)F)cc3)n2)cc1` [Compound 73]: the mortality at 50 µg/cm2 in test [1] and in test [3] was 50 to 100% throughout. In test [2], the mortality at 200 ppm was below 80%.

`FC(F)(F)Oc1ccc(-n2cnc(-c3ccc(/C=N/NC(=S)NCc4ccccc4)cc3)n2)cc1` [Compound 3, N-benzyl-2-(4-(1-(4-(trifluoromethoxy)phenyl)-1H-1,2,4-triazol-3-yl)benzylidene)hydrazinecarbothioamide]: the figures for the mortality at 50 µg/cm2 in test [1] and in test [3] were below 50% and 50 to 100%, respectively. Besides, the mortality at 200 ppm in test [2] was below 80%.

`CCOC(=O)CNC(=S)N/N=C/c1ccc(-c2ncn(-c3ccc(OC(F)(F)F)cc3)n2)cc1` [Compound 30]: the mortality at 50 µg/cm2 in test [1] and in test [3] was 50 to 100% throughout. Also, the mortality at 200 ppm in test [2] was below 80%.

As to `FC(F)(F)Oc1ccc(-n2cnc(-c3ccc(/C=N/NC(=S)Nc4ccc(Cl)cc4)cc3)n2)cc1` [Compound 56], the mortality at 50 µg/cm2 in test [1] and in test [3] was 50 to 100% each time. In addition, the mortality at 200 ppm in test [2] is below 80%.

With `CC(=O)c1ccc(NC(=S)N/N=C/c2ccc(-c3ncn(-c4ccc(OC(F)(F)F)cc4)n3)cc2)cc1` [Compound 33], the mortality at 50 µg/cm2 in test [1] and in test [3] was 50 to 100% throughout. In addition, the mortality at 200 ppm in test [2] was below 80%.

For the compound `FC(F)(F)Oc1ccc(-n2cnc(-c3ccc(/C=N/NC(=S)NCCC4=CCCCC4)cc3)n2)cc1` [Compound 20], the mortality at 50 µg/cm2 in test [1] and in test [3] was 50 to 100% throughout. Besides, in test [2], the mortality at 200 ppm is below 80%.

With `Fc1c(F)c(F)c(NC(=S)N/N=C/c2ccc(-c3ncn(-c4ccc(OC(F)(F)F)cc4)n3)cc2)c(F)c1F` [Compound 64], the mortality at 50 µg/cm2 in test [1] and in test [3] was 50 to 100% in each case. Moreover, the mortality at 200 ppm in test [2] was below 80%.

In the case of `COc1ccc(NC(=O)N/N=C/c2ccc(-c3ncn(-c4ccc(OC(F)(F)F)cc4)n3)cc2)c(C)c1` [Compound 119], the mortality at 50 µg/cm2 in test [1] and in test [3] was 50 to 100% in each case. Further, the mortality at 200 ppm in test [2] was below 80%.

On to `FC(F)(F)Oc1ccc(-n2cnc(-c3ccc(/C=N/NC(=S)Nc4c(Cl)cccc4Cl)cc3)c2)cc1` [Compound 68], for which the mortality at 50 µg/cm2 in test [1] and in test [3] was 50 to 100% in each case. The mortality at 200 ppm in test [2] was below 80%.

Take `CN(C)S(=O)(=O)c1ccccc1NC(=S)N/N=C/c1ccc(-c2ncn(-c3ccc(OC(F)(F)F)cc3)n2)cc1` [Compound 77]: the mortality at 50 µg/cm2 in test [1] and in test [3] was 50 to 100% each time. In addition, in test [2], the mortality at 200 ppm was below 80%.

As to `COc1ccc(NC(=S)N/N=C/c2ccc(-c3cn(-c4ccc(OC(F)(F)F)cc4)cn3)cc2)cc1` [Compound 67], the mortality at 50 µg/cm2 in test [1] and in test [3] was 50 to 100% throughout. Moreover, the mortality at 200 ppm in test [2] was below 80%.

On to `FC(F)(F)c1ccc(-c2cn(-c3ccc(/C=N/NC(=S)Nc4c(Cl)cccc4Cl)cc3)cn2)cc1` [Compound 70], for which the mortality at 50 µg/cm2 in test [1] and in test [3] was 50 to 100% each time. The mortality at 200 ppm in test [2] is below 80%.

Consider `COc1ccccc1NC(=S)N/N=C/c1ccc(-c2ncn(-c3ccc(OC(F)(F)F)cc3)n2)cc1` [Compound 74], for which the mortality at 50 µg/cm2 in test [1] and in test [3] was 50 to 100% in each case. Also, the mortality at 200 ppm in test [2] was below 80%.

For the compound `CN(C)c1cccc(CNC(=S)N/N=C/c2ccc(-c3ncn(-c4ccc(OC(F)(F)F)cc4)n3)cc2)c1` [Compound 38], the mortality at 50 µg/cm2 in test [1] and in test [3] was 50 to 100% in each case. Also, in test [2], the mortality at 200 ppm is below 80%.

In the case of `CCOc1ccc(NC(=S)N/N=C/c2ccc(-c3ncn(-c4ccc(OC(F)(F)F)cc4)n3)cc2)cc1` [Compound 58], the mortality at 50 µg/cm2 in test [1] and in test [3] was 50 to 100% each time. Besides, the mortality at 200 ppm in test [2] was below 80%.

Turning to `FC(F)(F)Oc1ccc(-n2cnc(-c3ccc(/C=N/NC(=S)NC4CC4)cc3)n2)cc1` [Compound 23], the mortality at 50 µg/cm2 in test [1] and in test [3] was 50 to 100% throughout. Also, in test [2], the mortality at 200 ppm was below 80%.

Take `COC(=O)C1CC(c2ccc(/C=N/NC(=S)Nc3c(C)cc(OC)cc3C)cc2)=NN1c1ccc(OC(F)(F)F)cc1` (stereo not drawn) [Compound 132]: the mortality at 50 µg/cm2 in test [1] and in test [3] was 50 to 100% each time. Besides, in test [2], the mortality at 200 ppm is below 80%.

With `CNC(=S)N/N=C/c1ccc(-c2ncn(-c3ccc(OC(F)(F)F)cc3)n2)cc1` [Compound 13], the mortality at 50 µg/cm2 in test [1] and in test [3] was 50 to 100% throughout. Moreover, the mortality at 200 ppm in test [2] is below 80%.

In the case of `COc1ccc(NC(=S)N/N=C/c2ccc(-c3ncn(-c4ccc(OC(F)(F)F)cc4)n3)cc2)c(C(F)(F)F)c1` [Compound 51], the mortality at 50 µg/cm2 in test [1] and in test [3] was 50 to 100% throughout. In test [2], the mortality at 200 ppm is below 80%.

For `Fc1ccc(NC(=S)N/N=C/c2ccc(-c3ncn(-c4ccc(OC(F)(F)F)cc4)n3)cc2)cc1` [Compound 10], the mortality at 50 µg/cm2 in test [1] and in test [3] was 50 to 100% each time. Also, in test [2], the mortality at 200 ppm was below 80%.

In the case of `COc1cc(C)c(NC(=S)N/N=C/c2ccc(-c3ncn(-c4ccc(OC(F)(F)C(F)(F)F)cc4)n3)cc2)c(C)c1` [Compound 128], the mortality at 50 µg/cm2 in test [1] and in test [3] was 50 to 100% in each case. For the same compound, the mortality at 200 ppm in test [2] is below 80%.

Take `Cc1cccc(C)c1NC(=S)N/N=C/c1ccc(-c2ncn(-c3ccc(OC(F)(F)C(F)(F)F)cc3)n2)cc1` [Compound 97]: the mortality at 50 µg/cm2 in test [1] and in test [3] was 50 to 100% in each case. The mortality at 200 ppm in test [2] was below 80%.

With `Fc1cccc(Cl)c1NC(=S)N/N=C/c1ccc(-c2ncn(-c3ccc(OC(F)(F)F)cc3)n2)cc1` [Compound 63], the mortality at 50 µg/cm2 in test [1] and in test [3] was 50 to 100% each time. The mortality at 200 ppm in test [2] is below 80%.

For `COCCNC(=S)N/N=C/c1ccc(-c2ncn(-c3ccc(OC(F)(F)F)cc3)n2)cc1` [Compound 18], the mortality at 50 µg/cm2 in test [1] and in test [3] was 50 to 100% in each case. The mortality at 200 ppm in test [2] was below 80%.

Consider `FC(F)(F)Oc1ccc(-n2cnc(-c3ccc(/C=N/NC(=S)Nc4ccccc4)cc3)n2)cc1` [Compound 14], for which the mortality at 50 µg/cm2 in test [1] and in test [3] was 50 to 100% in each case. Moreover, in test [2], the mortality at 200 ppm is below 80%.

For the compound `O=C(NC(=S)N/N=C/c1ccc(-c2ncn(-c3ccc(OC(F)(F)F)cc3)n2)cc1)c1ccc([N+](=O)[O-])cc1` [Compound 31], the mortality at 50 µg/cm2 in test [1] and in test [3] was below 50% each time. For the same compound, the mortality at 200 ppm in test [2] is below 80%.

On to `CCc1ccccc1NC(=S)N/N=C/c1ccc(-c2ncn(-c3ccc(OC(F)(F)F)cc3)n2)cc1` [Compound 62], for which the mortality at 50 µg/cm2 in test [1] and in test [3] was 50 to 100% throughout. Further, the mortality at 200 ppm in test [2] is below 80%.
